The record followed here is BindingDB's records for doi:10.1002/cmdc.200500009 (Bayer Healthcare, 2006).

Molecules are shown by their SMILES. Where only a bound is given, the exact number is not on record here.

The target in the assay is T1, Endothelin-converting enzyme 1 (Rattus norvegicus, UniProt P42893).
T1 sequence (P42893 whole entry): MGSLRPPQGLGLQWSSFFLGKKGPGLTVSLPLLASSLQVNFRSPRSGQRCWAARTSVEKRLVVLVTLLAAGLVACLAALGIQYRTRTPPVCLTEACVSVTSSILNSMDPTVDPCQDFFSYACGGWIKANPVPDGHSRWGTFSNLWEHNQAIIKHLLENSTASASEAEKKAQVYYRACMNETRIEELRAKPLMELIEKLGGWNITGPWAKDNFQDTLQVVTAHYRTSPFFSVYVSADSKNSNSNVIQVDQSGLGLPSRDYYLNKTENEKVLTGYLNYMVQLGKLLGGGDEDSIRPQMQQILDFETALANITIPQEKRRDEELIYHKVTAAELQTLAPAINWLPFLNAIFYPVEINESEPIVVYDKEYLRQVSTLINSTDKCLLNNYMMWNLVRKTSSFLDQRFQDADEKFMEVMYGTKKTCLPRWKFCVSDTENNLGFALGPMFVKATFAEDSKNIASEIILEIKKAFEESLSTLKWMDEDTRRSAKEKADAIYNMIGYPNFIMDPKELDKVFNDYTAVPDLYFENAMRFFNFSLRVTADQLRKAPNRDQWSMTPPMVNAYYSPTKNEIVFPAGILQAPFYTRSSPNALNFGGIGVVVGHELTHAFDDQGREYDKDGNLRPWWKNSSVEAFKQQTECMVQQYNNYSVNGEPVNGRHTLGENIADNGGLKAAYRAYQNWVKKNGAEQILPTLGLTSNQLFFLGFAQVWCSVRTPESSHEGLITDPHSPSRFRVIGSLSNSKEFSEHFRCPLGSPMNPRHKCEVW
Nature of the assay: Inhibition Assay. From the text: Inhibition assay using ECE.
With `CC(C)(C)CC(=O)Nc1ccc2c(c1)cc(C(=O)Nc1ccc(Cl)nc1)n2Cc1ccccc1F` [ECE Inhibitor, 9], half-maximal inhibition (IC50) was put at 220 nM.

Regarding `CC(C)(C)CC(=O)Nc1ccc2c(c1)cc(C(=O)Nc1cccc(C(=O)Nc3ccc(S(N)(=O)=O)cc3)c1)n2Cc1ccccc1F`, inhibition was half-maximal at 10 nM (IC50).

`CC(C)(C)CC(=O)Nc1ccc2c(c1)cc(C(=O)Nc1ccc(S(=O)(=O)Nc3ccccn3)cc1)n2Cc1ccccc1F` [ECE Inhibitor, 10] yielded an IC50 of 410 nM. Compared with the last compound, the IC50 is about 41-fold higher.

`CC(C)(C)CC(=O)Nc1ccc2c(c1)cc(C(=O)Nc1nc3ccccc3[nH]1)n2Cc1ccccc1F` [ECE Inhibitor, 8]: the IC50 is > 10000 nM.

`CC(C)(C)CC(=O)Nc1ccc2c(c1)cc(C(=O)Nc1ccccc1)n2Cc1ccccc1F` [ECE Inhibitor, 6] came in with an IC50 of 1800 nM. In other words, the single-digit micromolar range.

As to `CC(C)(C)CC(=O)Nc1ccc2c(c1)cc(C(=O)Nc1cncc(C(=O)O)c1)n2Cc1ccccc1F` [ECE Inhibitor, 13], the IC50 came to 180 nM.

For `CC(C)(C)CC(=O)Nc1ccc2c(c1)cc(C(=O)Nc1cncc(C(=O)Nc3ccc(S(N)(=O)=O)cc3)c1)n2Cc1ccccc1F` [ECE Inhibitor, 14], half-maximal inhibition (IC50) required 10 nM.

In the case of `CC(C)(C)CC(=O)Nc1ccc2c(c1)cc(C(=O)Nc1ccn[nH]1)n2Cc1ccccc1F`, the IC50 is > 10000 nM.
